Test results reported in article PMC11352273, “The Proapoptotic Action of Pyrrolidinedione–Thiazolidinone Hybrids towards Human Breast Carcinoma Cells Does Not Depend on Their Genotype” (Cancers, 2024).
Where two headings read alike, the source gives them in different places.

How the values were obtained:
4T1 cells = experiment: MTT assay; format: cell-based, murine; conditions: Mus musculus, read-out: IC50, µM (M ± SD)
Procedure: (§1) The MCF-7 and MDA-MB-231 cells were cultured in the DMEM medium containing 10% of the FBS, HCC1954, T-47D, and 4T1 cells in the RPMI-1640 medium with the addition of 10% of the FBS, and MCF-10A cells in MEGM Mammary Epithelial Cell Growth Medium BulletKit supplemented with penicillin/streptomycin cocktail and 5% of horse serum. The cells were cultured in a […] atmosphere at 5% CO2 and 37 °C. After trypsinization, cells were counted using a Scepter 3.0 handheld automated cell counter (Millipore, Burlington, MA, USA).
(§2) The MTT test was used to assess the metabolic activity of cells treated with the investigated substances following the Sigma-Aldrich manufacturer’s instructions. Briefly, compounds were added in 100 µL of the cultural medium, and cells were incubated for the next 24 and 48 h. Doxorubicin was used as a reference drug. The DMSO was added to dissolve the crystals of formazan. We used the ThermoScientific Evolution 201 UV–VIS spectrophotometer (ThermoFisher Scientific, Waltham, MA, USA) to measure the absorbance of formazan at 570 nm. The initial value of the relative number of cells in control (under 0.1% of the DMSO) was accepted as 100%. We used GraphPad Prism Version 9 to calculate the half-maximal inhibition concentration (IC50) of the studied compounds (the concentration of the drug that reduced cell viability by 50%).

HCC1954 cells [1] = experiment: MTT assay; format: cell-based; conditions: Homo sapiens, read-out: IC50, µM (M ± SD)
Procedure: as §1, §2

MCF-7 cells [2] = experiment: MTT assay; format: cell-based; conditions: Homo sapiens, read-out: IC50, µM (M ± SD)
Procedure: as §1, §2

MDA-MB-231 cells [3] = experiment: MTT assay; format: cell-based; conditions: Homo sapiens, read-out: IC50, µM (M ± SD)
Procedure: as §1, §2

T-47D cells = experiment: MTT assay; format: cell-based; conditions: Homo sapiens, T47D, read-out: IC50, µM (M ± SD)
Procedure: as §1, §2

MCF-10A cells [4] = experiment: MTT assay; format: cell-based, human
Procedure: as §1, §2

HCC1954 cells [5] = experiment: Clonogenic assay; format: cell-based, human; conditions: Homo sapiens; HCC1954; 72 h exposure, 14 days culture; read-out: IC50 (M ± SD) in clonogenic assay
Procedure: (§3) The clonogenic assay was carried out utilizing the previously published methodology. The MCF-7, MDA-MB-231, HCC1954, and MCF-10A cells (500 cells/2 mL) were seeded in a 12-well plate overnight. Afterward, studied derivatives or doxorubicin (1, 2.5, 5, 10, and 50 µM) were added to cells. The media was changed after 72 h to a compound-free one, and the cells were cultured for the following 14 days. Then, the cells were washed, fixed, and stained with 0.1% crystal violet. After washing, the plates were dried at room temperature. The colonies were recorded by ImageJ software (Version 1.30). The value of colonies in control (non-treated cells) was accepted as 100%. The effect of compounds on the colony-forming ability of cells was expressed as the percentage of colonies compared to the control.

MCF-7 cells [6] = experiment: Clonogenic assay; format: cell-based, human; conditions: for IC50: Homo sapiens, MCF7, MCF-7, 72 h exposure, 14 days culture, read-out: IC50 (M ± SD) in clonogenic assay; for formation of colonies: MCF-7, compound at 5 µM
Procedure: as §3

MDA-MB-231 cells [7] = experiment: Clonogenic assay; format: cell-based, human; conditions: for IC50: Homo sapiens, MDA-MB-231, 72 h exposure, 14 days culture, read-out: IC50 (M ± SD) in clonogenic assay
Procedure: as §3

MCF-10A cells [8] = experiment: Clonogenic assay; format: cell-based; conditions: Homo sapiens; for IC50: 72 h exposure, 14 days culture, read-out: IC50 (M ± SD) in clonogenic assay; for inhibition at 50 µM: compound at 50 µM, read-out: inhibition of the formation of colonies
Procedure: as §3

[9] = tested on: MDA-MB-231, 4T1, MCF-7, T-47D, and HCC1954 cells; experiment: MTT assay, summary over breast carcinoma cell lines; format: cell-based; conditions: for IC50: Breast carcinoma cell, 24 and 48 h, all five cancer cell lines and all three hybrids together, read-out: IC50, range over breast carcinoma cell lines; for selectivity index (SI = IC50 for MCF-10A/IC50 for human breast tumor cells): range over cell lines and time points
Procedure: as §1, §2

[10] = tested on: normal human keratinocytes (HaCaT); parameters: method as in PMID 37579525; conditions: cited from earlier work
[11] = tested on: mitogen-activated lymphocytes collected from the peripheral blood of a healthy donor; parameters: method as in PMID 37579525; conditions: cited from earlier work
[12] = Homo sapiens, MCF-10A, 24 h, MCF-10A, 24 h, read-out: IC50, µM (M ± SD)
[13] = Homo sapiens, MCF-10A, 48 h, MCF-10A, 48 h, read-out: IC50, µM (M ± SD)
[14] = Homo sapiens, MCF-10A, time point not specified (24 and 48 h), read-out: IC50 towards MCF-10A cells
[15] = time point not specified (24 and 48 h), read-out: IC50 towards MCF-10A cells

Row | SMILES | IC50 (4T1 cells; 4T1, 24 h) | IC50 (4T1 cells; 4T1, 48 h) | IC50 (HCC1954 cells [1]; HCC1954, 24 h) | IC50 (HCC1954 cells [1]; HCC1954, 48 h) | IC50 (MCF-7 cells [2]; MCF7, MCF-7, 24 h) | IC50 (MCF-7 cells [2]; MCF7, MCF-7, 48 h) | IC50 (MDA-MB-231 cells [3]; MDA-MB-231, 24 h) | IC50 (MDA-MB-231 cells [3]; MDA-MB-231, 48 h) | IC50 (T-47D cells; 24 h) | IC50 (T-47D cells; 48 h) | IC50 (MCF-10A cells [4]; [12]) | IC50 (MCF-10A cells [4]; [13]) | IC50 (MCF-10A cells [4]; [14]) | IC50 (MCF-10A cells [4]; [15]) | IC50 (HCC1954 cells [5]) | IC50 (MCF-7 cells [6]) | formation of colonies (MCF-7 cells [6]) | IC50 (MDA-MB-231 cells [7]) | IC50 (MCF-10A cells [8]) | inhibition at 50 µM (MCF-10A cells [8]) | further results
1 | O=C1CC(N2C(=O)C(=CC(Cl)=Cc3ccc([N+](=O)[O-])cc3)SC2=S)C(=O)N1c1ccc(Cl)cc1 (stereo not drawn) [Les-6294, 1-(4-chlorophenyl)-3-[5-[2-chloro-3-(4-nitrophenyl)prop-2-enylidene]-4-oxo-2-thioxothiazolidine-3-yl]pyrrolidine-2,5-dione] | 2.2 ± 0.19 µM | 2.22 ± 0.25 µM | 4.53 ± 0.18 µM | 5.01 ± 0.23 µM | 6.74 ± 0.64 µM | 3.54 ± 0.14 µM | 21.9 ± 9.92 µM | 3.72 ± 0.22 µM | 4.48 ± 0.51 µM | 2.66 ± 0.21 µM | > 100 µM | > 100 µM | > 100 µM | > 64.6 µM | 3.05 ± 0.03 µM | 1.33 ± 0.1 µM | totally inhibited | 0.67 ± 0.08 µM | > 50 µM | 37.1% | formation of colonies (MDA-MB-231 cells [7]; MDA-MB-231, compound at 5 µM): did not observe the growth; IC50 [9]: 1.37 to 21.9 µM; selectivity index (SI = IC50 for MCF-10A/IC50 for human breast tumor cells) [9]: 4.57–37.59; IC50 [10]: > 73.6 µM; IC50 [11]: 29 to 67 µM
2 | O=C1CC(N2C(=O)C(=CC(Cl)=Cc3ccc([N+](=O)[O-])cc3)SC2=S)C(=O)N1c1ccc(Br)cc1 (stereo not drawn) [Les-6328, 1-(4-bromophenyl)-3-[5-[2-chloro-3-(4-nitrophenyl)prop-2-enylidene]-4-oxo-2-thioxothiazolidine-3-yl]pyrrolidine-2,5-dione] | 2.25 ± 0.34 µM | 1.94 ± 0.15 µM | 9.91 ± 0.17 µM | 6.4 ± 0.25 µM | 3.26 ± 0.4 µM | 2.18 ± 0.19 µM | 6.09 ± 0.33 µM | 2.01 ± 0.12 µM | 4.08 ± 0.56 µM | 1.97 ± 0.58 µM | > 100 µM | > 100 µM | > 100 µM | > 64.6 µM | 1.54 ± 0.02 µM | 1.57 ± 0.12 µM | totally inhibited | 1.19 ± 0.03 µM | > 50 µM | 25.9% | formation of colonies (MDA-MB-231 cells [7]; MDA-MB-231, compound at 2.5 µM): did not observe the growth; IC50 [9]: 1.37 to 21.9 µM; selectivity index (SI = IC50 for MCF-10A/IC50 for human breast tumor cells) [9]: 10.09–50.76
